Measured values: patent US20200245667A1, “OLIGOSACCHARIDE COMPOSITIONS AND THEIR USE DURING TRANSITIONAL PHASES OF THE MAMMALIAN GUT MICROBIOME” (EVOLVE BIOSYSTEMS, INC., priority 2017, published 2020)

Tests used:
[1] = tested on: L. reuteri; details: Rattanaprasert et al. 2014; cited from earlier work
[2] = tested on: B. breve; assay: free sugar consumption by intestinal microbiota; type: cell-based; set-up: key: *: predicted, but not observed; ND: Not Determined; details: predicted, but not observed
Text: (§1) A number of bacterial species are provided in Table 2, since the inventors have discovered preferred carbon source(s) for certain bacteria. Certain embodiments of the invention described herein would include one or more of any of the species found in Table 2.

[3] = tested on: B. bifidum; assay: free sugar consumption by intestinal microbiota; type: cell-based; set-up: key: *: predicted, but not observed; ND: Not Determined; details: predicted, but not observed
Text: as §1

[4] = tested on: B. infantis; assay: free sugar consumption by intestinal microbiota; type: cell-based; set-up: key: *: predicted, but not observed; ND: Not Determined; details: predicted, but not observed
Text: as §1

[5] = tested on: B. longum; assay: free sugar consumption by intestinal microbiota; type: cell-based; set-up: key: *: predicted, but not observed; ND: Not Determined; details: predicted, but not observed
Text: as §1

Compound | growth of Lactobacillus reuteri on the sugar [1] | preferences for free sugar consumption [2] | preferences for free sugar consumption [3] | preferences for free sugar consumption [4] | preferences for free sugar consumption [5]
C[C@H](O)[C@H](O)[C@@H](O)[C@@H](O)C=O [Rhamnose] | utilize rhamnose as a terminal electron acceptor to improve its growth | – | – | – | –
O=C[C@@H](O)[C@H](O)[C@H](O)CO [Arabinose] | known to grow on arabinose | – | – | – | –
C[C@H](O)[C@@H](O)[C@@H](O)[C@H](O)C=O [Fucose] | – | * | * | * | *
